Test [1] concerns NCI-H358. Put plainly: Antiproliferative activity against human NCI-H358 cells assessed as inhibition of cell growth measured after 72 hrs by CCK8 method. Conditions: NCI-H358, 72 h. Format: functional, cell-based.
Test [2] has as its system MV4-11. The test can be described thus: Induction of apoptosis in human MV4-11 cells assessed as late apoptotic cells at 5 uM measured after 1 hrs by Annexin V-FITC/7-AAD staining based flow cytometric analysis (reference value: 0.98%). It is filed as functional.
Test [3] deals with MV4-11. Put plainly: Induction of apoptosis in human MV4-11 cells assessed as necrotic cells at 5 uM measured after 2 hrs by Annexin V-FITC/7-AAD staining based flow cytometric analysis (reference value: 0.068%). It is filed as functional.
The test system of test [4] is MV4-11. The test can be described thus: Induction of apoptosis in human MV4-11 cells assessed as viable cells at 5 uM measured after 2 hrs by Annexin V-FITC/7-AAD staining based flow cytometric analysis (reference value: 96.8%). Format: functional. Particulars: read-out: Activity. (In flow cytometry, cells or beads pass a laser one at a time.)
In test [5] the test system is MV4-11. Put plainly: Induction of apoptosis in human MV4-11 cells assessed as early apoptotic cells at 2.5 uM measured after 4 hrs by Annexin V-FITC/7-AAD staining based flow cytometric analysis (reference value: 2.48%). Format: functional.
Test [6] concerns the target T1, Tyrosine-protein phosphatase non-receptor type 11 (Homo sapiens) (UniProt Q06124).
T1 sequence (whole entry): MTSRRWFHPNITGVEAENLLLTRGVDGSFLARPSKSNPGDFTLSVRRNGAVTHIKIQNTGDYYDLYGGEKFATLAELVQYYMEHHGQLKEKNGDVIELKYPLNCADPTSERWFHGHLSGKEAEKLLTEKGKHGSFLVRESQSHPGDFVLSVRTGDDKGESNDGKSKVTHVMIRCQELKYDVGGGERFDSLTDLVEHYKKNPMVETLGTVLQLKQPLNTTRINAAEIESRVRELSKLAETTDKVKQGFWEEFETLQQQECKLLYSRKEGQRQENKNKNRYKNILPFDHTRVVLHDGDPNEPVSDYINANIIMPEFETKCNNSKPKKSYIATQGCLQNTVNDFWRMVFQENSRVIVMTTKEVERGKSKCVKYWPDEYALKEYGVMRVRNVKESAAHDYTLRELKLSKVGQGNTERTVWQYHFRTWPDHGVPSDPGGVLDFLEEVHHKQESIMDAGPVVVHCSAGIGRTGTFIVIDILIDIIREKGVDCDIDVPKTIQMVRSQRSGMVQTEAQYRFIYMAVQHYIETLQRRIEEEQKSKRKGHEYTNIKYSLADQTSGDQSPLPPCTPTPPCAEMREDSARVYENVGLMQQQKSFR
Put plainly: Inhibition of SHP2 in human NCI-H358 cells assessed as reduction in Akt phosphorylation level at upto 20 uM measured after 8 hrs by Western blot analysis. Format: cell-based. (In general: In western blotting, separated proteins are transferred to a membrane and probed.)

Test [7] relates to MV4-11. The test can be described thus: Induction of apoptosis in human MV4-11 cells assessed as necrotic cells at 1.25 uM measured after 4 hrs by Annexin V-FITC/7-AAD staining based flow cytometric analysis (reference value: 0.041%). It is filed as functional.
The subject of test [8] is MDA-MB-468. The test can be described thus: Antiproliferative activity against human MDA-MB-468 cells assessed as inhibition of cell growth measured after 72 hrs by CCK8 method. It is filed as functional, cell-based. Conditions: MDA-MB-468, 72 h.
Test [9] has as its target T2, Tyrosine-protein phosphatase non-receptor type 11 (Homo sapiens, UniProt Q06124).
T2 sequence (Q06124 whole entry): T1 sequence (whole entry)
Put plainly: Inhibition of recombinant human SHP2 PTPase activity (219 to 525 residues) using DIPMUP as substrate preincubated for 30 mins followed by substrate addition and measured after 30 mins by fluorescence based analysis.

Test [10] addresses T2, Tyrosine-protein phosphatase non-receptor type 11. Put plainly: Inhibition of full length wild type recombinant human SHP2 (1 to 525 residues) using DIPMUP as substrate preincubated for 30 mins followed by substrate addition and measured after 30 mins by fluorescence based analysis.
For test [11] the target is unchanged. The test can be described thus: Inhibition of full length wild type recombinant human IRS-1 peptide activated SHP2 (1 to 525 residues) using DIPMUP as substrate preincubated for 30 mins followed by substrate addition and measured after 30 mins by fluorescence based analysis.
In test [12] the test system is MV4-11. Put plainly: Induction of apoptosis in human MV4-11 cells assessed as late apoptotic cells at 5 uM measured after 2 hrs by Annexin V-FITC/7-AAD staining based flow cytometric analysis (reference value: 0.98%). It is filed as functional.

Calls of active or inactive are those of the source. The rule behind the calls is not given here.

As usually defined, the IC50 is the concentration needed to halve the response being measured. `C[C@@H]1OCC2(CCN(c3nnc(Sc4cccc(Cl)c4Cl)s3)CC2)[C@@H]1N`: the IC50 in [1] was 12 µM; in [8], 14.6 µM; in test [9], above 50 µM; in test [10], 0.84 µM; in [11] it was 0.25 µM. In addition, the Activity in test [2] was found to be 4.39%; in test [3], 1.17%; in test [5], 2.09%; in [7], 0.12%; in [12] it was 7.03%. The viability at 5 µM in [4] was determined as 80.9%. The inhibition entry in test [6] is “Active”.

The values above are taken from ChEMBL document CHEMBL5620403, “Design, synthesis, activity and molecular dynamics studies of 1,3,4-thiadiazole derivatives as selective allosteric inhibitors of SHP2 for the treatment of cancer” (Eur J Med Chem, 2023).
